# Assay results reported in patent publication US20260027132A1, “FRAGRANCE COMPOSITIONS AND USE THEREOF FOR IMPROVING SLEEP” (TAKASAGO INTERNATIONAL CORPORATION, priority 2018, published 2026).
# Test system: panelists
# Experiment: Sleep study with panelists smelling test material at bedtime, Fitbit sleep data versus blank control
# Type: in vivo, human
# Conditions: vs blank control (no fragrance), 0.06 g neat oil on a blotter, smelled at bedtime, jar left open, one week
# Protocol: A series of sleep studies were conducted. Each study runs one week with one additional week for blank control sample (no fragrance). The number of panelists in each study ranged from 9 to 15. Panelists received either a set of control jars or a set of jars with test material (0.06 g neat oil on a blotter). The second week the order was reversed such that at the end of each study, each panelist had received both treatments.
# Each night, when ready to go to sleep, panelists were instructed to open one of the jars, hold it under their nose, and smell the fragrance while counting slowly to 20, then leave the jar open on the night table while sleeping. Fitbit sleep data were collected at the end of each session of each study and analyzed by ANOVA.
SMILES,Total light sleep minutes % Increase [%],Total minutes awake % Decrease [%],Sleep efficiency % Increase [%],Total deep sleep minutes % Increase [%],Total minutes asleep % Increase [%],Total REM sleep minutes % Increase [%]
"O=C1CCCC=CCCCCCCCCCC1 [Ambretone, 5-cyclohexadecen-1-one]",4,,,,,
"CC1(C)CCC[C@]2(C)[C@H]3CCO[C@]3(C)CC[C@@H]12 [Ambroxan, (3aR,5aS,9aS,9bR)-3a,6,6,9a-tetramethyl-2,4,5,5a,7,8,9,9b-octahydro-1H-benzo[e][1]benzofuran]",,8,,,,
"CC(C=O)Cc1ccc(C(C)C)cc1 (stereo not shown) [Cyclamen aldehyde, cyclamen aldehyde]",,7,1.2,7.4,4,
"C=CC(C)CCCC(C)(C)O (stereo not shown) [Dihydromyrcenol, dihydromyrcenol]",,,,37,13,10
"CC(C)=CCC/C(C)=C/CO [Geraniol, geraniol]",8,,,29,10,
CC(C)[C@@H]1CC[C@@H](C)C[C@H]1O [L-menthol],3,,1,,,
"CC1CCCCCCCCCCCCC(=O)C1 [L-muscone, 3-methylcyclopentadecan-1-one]",,,,11,,
"CC(C=O)Cc1ccc(C(C)(C)C)cc1 (stereo not shown) [Lilial, lilial]",5,,1,,4,6
"C=CC(C)(O)CCC=C(C)C (stereo not shown) [Linalool, linalool]",5,,,,,
"C=CC(C)(CCC=C(C)C)OC(C)=O (stereo not shown) [Linalyl acetate, linalyl acetate]",,10.6,2,16,,19
"O=C1CCCCCCCCCCCC(=O)OCCO1 [Musk T, 1,4-dioxacycloheptadecane-5,17-dione]",,13,2,,,
"CC(C)=CCC/C(C)=C\CO [Nerol, nerol]",4,,,,4,
"CC(C)C(=O)OCCOc1ccccc1 [Phenoxyethyl isobutyrate, phenoxyethyl isobutyrate]",8,,,,,
"COc1cc(C=O)ccc1O [Vanillin, vanillin]",,,,,,7
CC(=O)/C=C/C1C(C)=CCCC1(C)C (stereo not drawn) [alpha-ionone],,,,14,5,
CC(=O)/C=C/C1=C(C)CCCC1(C)C [beta-ionone],3,12,2,,,
CC/C=C\CCOC(=O)c1ccccc1O [cis-3-hexenyl salicylate],,,,8,,
CC(=O)/C(C)=C/C1C(C)=CCCC1(C)C (stereo not shown) [gamma-methyl ionone],12,,,,,
